# System: Enterococcus faecalis
# Experiment: In vitro for antibacterial activity against Enterococcus faecalis strain STCO-19
# Format: functional
row,MIC [µg/mL],Compound
1,8,CCc1ccc(N2C[C@H](CNC(C)=O)OC2=O)cc1
2,1,CC(=O)NC[C@H]1CN(c2ccc(C(C)=O)cc2)C(=O)O1 [DUP-721]
3,16,CCN(CC)c1ccc(N2C[C@H](CNC(C)=O)OC2=O)cc1
4,2,CC(=O)NC[C@H]1CN(c2ccc(C(C)(C)C)cc2)C(=O)O1
5,16,C#Cc1ccc(N2C[C@H](CNC(C)=O)OC2=O)cc1
6,4,CC(=O)NCC1CN(c2ccc(C(C)C)cc2)C(=O)O1 (racemic)
7,8,CC(=O)NC[C@H]1CN(c2ccc(Br)cc2)C(=O)O1
8,4,CC(=O)NC[C@H]1CN(c2ccc([S+](C)[O-])cc2)C(=O)O1 (stereo partly specified)
9,4,CSc1ccc(N2C[C@H](CNC(C)=O)OC2=O)cc1
10,> 64,CC(=O)NCC1CN(c2ccc(F)cc2)C(=O)O1 (racemic)
11,4,CC(=O)NC[C@H]1CN(c2ccc(C(C)O)cc2)C(=O)O1 (stereo partly specified)
12,2,CC(=O)NC[C@H]1CN(c2ccc(/C(C)=N\O)cc2)C(=O)O1
13,32,COc1ccc(N2CC(CNC(C)=O)OC2=O)cc1 (racemic)
14,16,CC(=O)NC[C@H]1CN(c2ccc(N(C)C)cc2)C(=O)O1
15,4,CC(=O)NC[C@@H]1CN(c2ccc(S(C)=O)cc2)C(=O)O1 (stereo partly specified)
16,8,C=Cc1ccc(N2C[C@H](CNC(C)=O)OC2=O)cc1
17,64,CC(=O)NCC1CN(c2ccc(Cl)cc2)C(=O)O1 (racemic)
18,8,CC(=O)NC[C@H]1CN(c2ccc(C=O)cc2)C(=O)O1
19,32,CC(=O)NC[C@H]1CN(c2ccc(C)cc2)C(=O)O1
20,8,CC(=O)NC[C@H]1CN(c2ccc(I)cc2)C(=O)O1
21,16,CC(=O)NC[C@H]1CN(c2ccc([S@+](C)[O-])cc2)C(=O)O1
22,4,CC(=O)NC[C@H]1CN(c2ccc(C(C)(C)O)cc2)C(=O)O1
23,16,CC(=O)NCC1CN(c2ccc(CO)cc2)C(=O)O1 (racemic)
24,16,CC(=O)NCC1CN(c2ccc(C#N)cc2)C(=O)O1 (racemic)

# More lines, now with the values behind:
row,Compound,MIC [µg/mL]
1,CCCCOc1ccc(N2C[C@H](CNC(C)=O)OC2=O)cc1,16
2,CC(=O)NC[C@H]1CN(c2ccc(C(=O)CF)cc2)C(=O)O1,2
3,CCC(=O)c1ccc(N2C[C@H](CNC(C)=O)OC2=O)cc1,0.5
4,"CC[S+]([O-])c1ccc(N2CC(CNC(C)=O)OC2=O)cc1 (single isomer, unassigned)",16
5,CC(=O)NC[C@H]1CN(c2ccc(C(F)(F)F)cc2)C(=O)O1,8
6,CCCC(O)c1ccc(N2C[C@H](CNC(C)=O)OC2=O)cc1 (stereo partly specified),32
7,CC(=O)NC[C@H]1CN(c2ccc(N)cc2)C(=O)O1,128
8,CC(=O)NCC1CN(c2ccc(Oc3ccccc3)cc2)C(=O)O1 (racemic),64
9,CCCCc1ccc(N2CC(CNC(C)=O)OC2=O)cc1 (racemic),4
10,COC(=O)c1ccc(N2C[C@H](CNC(C)=O)OC2=O)cc1,2
11,CCCC(=O)c1ccc(N2C[C@H](CNC(C)=O)OC2=O)cc1,0.25
12,CC(=O)NC[C@H]1CN(c2ccc(C(=O)CCl)cc2)C(=O)O1,2
13,CC(=O)NC[C@H]1CN(c2ccc(SC(F)(F)F)cc2)C(=O)O1,4
14,CC(=O)NC[C@H]1CN(c2ccc(S(=O)(=O)C(F)(F)F)cc2)C(=O)O1,2
15,CCS(=O)(=O)c1ccc(N2C[C@H](CNC(C)=O)OC2=O)cc1,8
16,CC(=O)NC[C@H]1CN(c2ccc(S(C)(=O)=O)cc2)C(=O)O1,4
17,CCSc1ccc(N2C[C@H](CNC(C)=O)OC2=O)cc1,2
18,CC(=O)NC[C@H]1CN(c2ccc([S+]([O-])C(F)(F)F)cc2)C(=O)O1 (stereo partly specified),2
19,CC(=O)NC[C@H]1CN(c2ccc([N+](=O)[O-])cc2)C(=O)O1,2
20,CC(=O)NC[C@H]1CN(c2ccc(/C=N\O)cc2)C(=O)O1,16

row,Compound,MIC [µg/mL]
1,CCOC(=O)c1ccc(N2CC(CNC(C)=O)OC2=O)cc1 (racemic),4
2,CC(=O)NC[C@H]1CN(c2ccc(C(=O)CC#N)cc2)C(=O)O1,64
3,CC(=O)NC[C@H]1CN(c2ccc(C(=O)C(C)C)cc2)C(=O)O1,1
4,CC(=O)NC[C@H]1CN(c2ccc(C(=O)CBr)cc2)C(=O)O1,8
5,CC(=O)NC[C@H]1CN(c2ccc(S(=O)(=O)CF)cc2)C(=O)O1,1
6,CCCc1ccc(N2C[C@H](CNC(C)=O)OC2=O)cc1,4
7,CC(=O)Cc1ccc(N2C[C@H](CNC(C)=O)OC2=O)cc1,8
8,CC(=O)NC[C@H]1CN(c2ccc(C(=O)COC(C)=O)cc2)C(=O)O1,2
9,CC(=O)NCC(=O)c1ccc(N2C[C@H](CNC(C)=O)OC2=O)cc1,16
10,CC(=O)NC[C@H]1CN(c2ccc(C(O)C(C)C)cc2)C(=O)O1 (stereo partly specified),8
11,CC(=O)NC[C@H]1CN(c2ccccc2)C(=O)O1,128
12,CC(=O)NC[C@H]1CN(c2ccc(Sc3ccccc3)cc2)C(=O)O1,128
13,CC(=O)NC[C@H]1CN(c2ccc([S+]([O-])CF)cc2)C(=O)O1 (stereo partly specified),8
14,CC(=O)NC[C@H]1CN(c2ccc(C(F)(F)C(F)(F)F)cc2)C(=O)O1,2
15,CCC(O)c1ccc(N2C[C@H](CNC(C)=O)OC2=O)cc1 (stereo partly specified),64
16,CCC[S+]([O-])c1ccc(N2C[C@H](CNC(C)=O)OC2=O)cc1 (stereo partly specified),64
17,CCC/C(=N/O)c1ccc(N2C[C@H](CNC(C)=O)OC2=O)cc1,4
18,CCCSc1ccc(N2C[C@H](CNC(C)=O)OC2=O)cc1,8
19,CCCS(=O)(=O)c1ccc(N2C[C@H](CNC(C)=O)OC2=O)cc1,32

# System: Staphylococcus aureus
# Experiment: In vitro for antibacterial activity against Staphylococcus aureus strain SFCO-1a
# Format: functional
row,MIC [µg/mL],Compound
1,4,CCc1ccc(N2C[C@H](CNC(C)=O)OC2=O)cc1
2,0.5,CC(=O)NC[C@H]1CN(c2ccc(C(C)=O)cc2)C(=O)O1 [DUP-721]
3,8,CCN(CC)c1ccc(N2C[C@H](CNC(C)=O)OC2=O)cc1
4,1,CC(=O)NC[C@H]1CN(c2ccc(C(C)(C)C)cc2)C(=O)O1
5,16,C#Cc1ccc(N2C[C@H](CNC(C)=O)OC2=O)cc1
6,4,CC(=O)NCC1CN(c2ccc(C(C)C)cc2)C(=O)O1 (racemic)
7,16,CC(=O)NC[C@H]1CN(c2ccc(Br)cc2)C(=O)O1
8,4,CC(=O)NC[C@H]1CN(c2ccc([S+](C)[O-])cc2)C(=O)O1 (stereo partly specified)
9,4,CSc1ccc(N2C[C@H](CNC(C)=O)OC2=O)cc1
10,> 64,CC(=O)NCC1CN(c2ccc(F)cc2)C(=O)O1 (racemic)
11,4,CC(=O)NC[C@H]1CN(c2ccc(C(C)O)cc2)C(=O)O1 (stereo partly specified)
12,4,CC(=O)NC[C@H]1CN(c2ccc(/C(C)=N\O)cc2)C(=O)O1
13,32,COc1ccc(N2CC(CNC(C)=O)OC2=O)cc1 (racemic)
14,16,CC(=O)NC[C@H]1CN(c2ccc(N(C)C)cc2)C(=O)O1
15,4,CC(=O)NC[C@@H]1CN(c2ccc(S(C)=O)cc2)C(=O)O1 (stereo partly specified)
16,4,C=Cc1ccc(N2C[C@H](CNC(C)=O)OC2=O)cc1
17,32,CC(=O)NCC1CN(c2ccc(Cl)cc2)C(=O)O1 (racemic)
18,8,CC(=O)NC[C@H]1CN(c2ccc(C=O)cc2)C(=O)O1
19,32,CC(=O)NC[C@H]1CN(c2ccc(C)cc2)C(=O)O1
20,8,CC(=O)NC[C@H]1CN(c2ccc(I)cc2)C(=O)O1
21,8,CC(=O)NC[C@H]1CN(c2ccc([S@+](C)[O-])cc2)C(=O)O1
22,2,CC(=O)NC[C@H]1CN(c2ccc(C(C)(C)O)cc2)C(=O)O1
23,32,CC(=O)NCC1CN(c2ccc(CO)cc2)C(=O)O1 (racemic)
24,16,CC(=O)NCC1CN(c2ccc(C#N)cc2)C(=O)O1 (racemic)

# Further lines, the compound ahead of its results:
row,Compound,MIC [µg/mL]
1,CCCCOc1ccc(N2C[C@H](CNC(C)=O)OC2=O)cc1,8
2,CC(=O)NC[C@H]1CN(c2ccc(C(=O)CF)cc2)C(=O)O1,2
3,CCC(=O)c1ccc(N2C[C@H](CNC(C)=O)OC2=O)cc1,1
4,"CC[S+]([O-])c1ccc(N2CC(CNC(C)=O)OC2=O)cc1 (single isomer, unassigned)",16
5,CC(=O)NC[C@H]1CN(c2ccc(C(F)(F)F)cc2)C(=O)O1,8
6,CCCC(O)c1ccc(N2C[C@H](CNC(C)=O)OC2=O)cc1 (stereo partly specified),16
7,CC(=O)NC[C@H]1CN(c2ccc(N)cc2)C(=O)O1,128
8,CC(=O)NCC1CN(c2ccc(Oc3ccccc3)cc2)C(=O)O1 (racemic),64
9,CCCCc1ccc(N2CC(CNC(C)=O)OC2=O)cc1 (racemic),4
10,COC(=O)c1ccc(N2C[C@H](CNC(C)=O)OC2=O)cc1,2
11,CCCC(=O)c1ccc(N2C[C@H](CNC(C)=O)OC2=O)cc1,0.25
12,CC(=O)NC[C@H]1CN(c2ccc(C(=O)CCl)cc2)C(=O)O1,0.5
13,CC(=O)NC[C@H]1CN(c2ccc(SC(F)(F)F)cc2)C(=O)O1,4
14,CC(=O)NC[C@H]1CN(c2ccc(S(=O)(=O)C(F)(F)F)cc2)C(=O)O1,2
15,CCS(=O)(=O)c1ccc(N2C[C@H](CNC(C)=O)OC2=O)cc1,8
16,CC(=O)NC[C@H]1CN(c2ccc(S(C)(=O)=O)cc2)C(=O)O1,4
17,CCSc1ccc(N2C[C@H](CNC(C)=O)OC2=O)cc1,1
18,CC(=O)NC[C@H]1CN(c2ccc([S+]([O-])C(F)(F)F)cc2)C(=O)O1 (stereo partly specified),2
19,CC(=O)NC[C@H]1CN(c2ccc([N+](=O)[O-])cc2)C(=O)O1,2
20,CC(=O)NC[C@H]1CN(c2ccc(/C=N\O)cc2)C(=O)O1,16

row,Compound,MIC [µg/mL]
1,CCOC(=O)c1ccc(N2CC(CNC(C)=O)OC2=O)cc1 (racemic),4
2,CC(=O)NC[C@H]1CN(c2ccc(C(=O)CC#N)cc2)C(=O)O1,8
3,CC(=O)NC[C@H]1CN(c2ccc(C(=O)C(C)C)cc2)C(=O)O1,1
4,CC(=O)NC[C@H]1CN(c2ccc(C(=O)CBr)cc2)C(=O)O1,4
5,CC(=O)NC[C@H]1CN(c2ccc(S(=O)(=O)CF)cc2)C(=O)O1,1
6,CCCc1ccc(N2C[C@H](CNC(C)=O)OC2=O)cc1,2
7,CC(=O)Cc1ccc(N2C[C@H](CNC(C)=O)OC2=O)cc1,4
8,CC(=O)NC[C@H]1CN(c2ccc(C(=O)COC(C)=O)cc2)C(=O)O1,0.5
9,CC(=O)NCC(=O)c1ccc(N2C[C@H](CNC(C)=O)OC2=O)cc1,8
10,CC(=O)NC[C@H]1CN(c2ccc(C(O)C(C)C)cc2)C(=O)O1 (stereo partly specified),4
11,CC(=O)NC[C@H]1CN(c2ccccc2)C(=O)O1,128
12,CC(=O)NC[C@H]1CN(c2ccc(Sc3ccccc3)cc2)C(=O)O1,> 128
13,CC(=O)NC[C@H]1CN(c2ccc([S+]([O-])CF)cc2)C(=O)O1 (stereo partly specified),8
14,CC(=O)NC[C@H]1CN(c2ccc(C(F)(F)C(F)(F)F)cc2)C(=O)O1,2
15,CCC(O)c1ccc(N2C[C@H](CNC(C)=O)OC2=O)cc1 (stereo partly specified),32
16,CCC[S+]([O-])c1ccc(N2C[C@H](CNC(C)=O)OC2=O)cc1 (stereo partly specified),32
17,CCC/C(=N/O)c1ccc(N2C[C@H](CNC(C)=O)OC2=O)cc1,4
18,CCCSc1ccc(N2C[C@H](CNC(C)=O)OC2=O)cc1,8
19,CCCS(=O)(=O)c1ccc(N2C[C@H](CNC(C)=O)OC2=O)cc1,32
